# Data reported in US12186304B2, “Method for treating cancer by combination of IAP inhibitor and modulator of immune checkpoint molecule” (ASCENTAGE PHARMA (SUZHOU) CO., LTD., priority 2018, dated 2025).
# How the values were obtained:
# CT26 colorectal cancer = test: Combination therapy in CT26 mouse colorectal cancer model; type: in vivo; settings: APG-1387 0.2 mg/kg i.v. once daily, docetaxel 8 mg/kg i.p. once weekly, anti-PD-1 200 μg/mouse i.p. twice weekly
# Experimental: (§1) Cell inoculation method was used to establish a […] tumor-immunized normal mouse subcutaneous homograft tumor model: tumor cells in logarithmic growth phase were collected, counted, and then resuspended in 1×PBS. The concentration of the cell suspension was adjusted to 2.5-5×10^7/mL. Tumor cells, 5-10×10^6/0.2 mL/mouse, were inoculated subcutaneously in the right back of the immunized normal mouse with a 1 mL syringe ([…]). All animal experimental operations were strictly in accordance with standards for use and management of laboratory animals by Gima Gene Co., Ltd and Suzhou Yasheng Pharmaceutical Co., Ltd. Relevant parameters were calculated with reference to China's NMPA “Guidelines for Non-clinical Research Techniques of Cytotoxic Antitumor Drugs”.
# Animal weight and tumor size were measured twice a week during the experiment. Animals were observed daily for status and the occurrence of death. Routine monitoring included the effects of tumor growth and treatment on the normal behaviors of animals, specifically including the activity, feeding and drinking, weight gain or loss, eyes, clothing hair, as well as other abnormalities of the laboratory animals. The deaths and clinical symptoms observed during the experiment were recorded in the original data. The whole process of administration, measurement of mouse weight and tumor volume was carried out in an ultra-clean bench. According to requirements of the experimental program, plasma and tumor tissue were collected, weighed and photographed for record after the end of last administration. Plasma and tumor samples were frozen at −80° C. for later use.
# (§2) Tumor volume (TV) was calculated as TV=a×b^2/2, wherein a and b represented the length and width of tumor measurement, respectively.
# (§3) Relative tumor volume (RTV) was calculated as RTV=Vt/V1, wherein V1 was the tumor volume at the time of grouping administration, and Vt was the tumor volume measured on day t after administration.
# The evaluation index of anti-tumor activity was relative tumor proliferation rate T/C (%), and was calculated as: relative tumor proliferation rate T/C (%)=(TRTV/CRTV)×100%, wherein TRTV was RTV in treatment group, and CRTV was RTV in vehicle control group.
# Tumor remission rate (%) was the number of SD (stable disease), PR (partial regression) and CR (complete regression) in tumor-bearing mice after treatment divided by the total number of mice in that group×100%. CR refers to the complete regression of the tumor, which means the tumor is inaccessible after treatment. PR refers to the partial regression of the tumor, which means tumor volume becomes smaller than before treatment. SD refers to stable tumor progression, which means tumor volume is the same as before treatment. Change of body weight (%)=(measurement of body weight−body weight when grouping)/body weight when grouping×100%.
# Efficacy evaluation criteria: according to China's NMPA “Guidelines for Non-clinical Research Techniques of Cytotoxic Antitumor Drugs” (November 2006), T/C (%) value 40% and p<0.05 by statistical analysis were considered as efficacious. If the weight loss of mice exceeded 20%, or the drug-related death percentage exceeded 20%, the drug dose was considered to be severely toxic.
# According to Clarke R., Issues in experimental design and endpoint analysis in the study of experimental cytotoxic agents in vivo in breast cancer and other models [J].
# A tumor model of CT26 colorectal cancer mouse was established, and the combined anti-tumor effect of APG-1387 with anti-PD-1 antibody and docetaxel was evaluated on this model. The administration regimen was as follows:
# APG-1387 monotherapy group: 0.2 mg/kg, intravenous injection, once daily for a total of 17 days;
# Docetaxel monotherapy group: 8 mg/kg, intraperitoneal injection, once weekly for a total of 17 days;
# Anti-PD-1 antibody monotherapy group: 200 μg/mouse, intraperitoneal injection, twice weekly for a total of 2.5 weeks (i.e., 17 days); […]
# MC38 colon cancer = test: Tumor growth in MC38 homologous mouse colon cancer model; type: in vivo
# Experimental: as §1, §2, §3
# The evaluation index of anti-tumor activity was relative tumor proliferation rate T/C (%), and was calculated as: relative tumor proliferation rate T/C (%)=(TRTV/CRTV)×100%, wherein TRTV was RTV in treatment group, and CRTV was RTV in vehicle control group. […]
# [1] = tested on: advanced or metastatic solid tumor; test: Phase I study: anti-tumor activity in all tumor types; type: in vivo, human
# [2] = tested on: metastatic pancreatic cancer; test: Phase I study: anti-tumor activity in pancreatic cancer; type: in vivo, human
# [3] = Phase I study: APG-1387 pharmacokinetics in plasma (LC-MS/MS); type: in vivo, human
# Experimental: APG-1387 was IV administered for 30 minutes once weekly in a 21-day-cycle.
# [4] = tested on: Murine MC38 colon cancer cells; test: Subcutaneous xenograft model of murine MC38 colon cancer; type: in vivo, female C57BL/6 mice; settings: MC38 s.c.
# Experimental: • (1) APG-1387: provided by Jiangsu Ascentage Pharmaceutical Development Co., Ltd. The batch number is R12JA076140-A2 and PAPG-1387-DP-201305A. Preserved at 4° C., away from the light and sealed. APG-1387 was administered intravenously (i.v.) or intraperitoneally (i.p.) or at a dosage of 10 mL/kg. APG-1387 was dissolved in 5% castor oil/10% PEG400/85% normal saline. • (2) Anti-PD-1 antibody: purchased from BioXcell. The article number is BE0146 and BE0273. Preserved at 4° C. and sealed. The anti-PD-1 antibody was administered intraperitoneally at a concentration of 100 μg per mice or 200 μg per mice. • (3) Isotype control (anti-IgG): purchased from BioXcell, the product number is BE0089. […]
# The mice were injected subcutaneously with 0.5-10×10^6 cells or in the ovary with 6×10^6 cells in situ to build the tumor xenograft model. […] For the orthotopic model, tumor growth was measured by examining in vivo fluorescence images 10 days after inoculation. […] Body weight and tumor size were measured twice per week during the experiment. […]
# Using the fluorescence imaging technique, the strength of the fluorescent signal can represent the growth and metastasis of tumors in vivo.
# The tumor growth curve and the animal body weight curve were plotted, with time on the X-axis and tumor volume and animal body weight on the Y-axis. […] All data were analyzed using SPSS 18.0 (*P<0.05, **P<0.01, ***P<0.001, ****P<0.0001).
# [5] = tested on: effector memory T cells and NK cells; test: Lymphocyte analysis (flow cytometry) in MC38 tumor-bearing mice; type: in vivo, mouse; settings: MC38 model; APG-1387 0.2 mg/kg
# Experimental: In the experiment of tumor-infiltrated lymphocyte analysis, tissue samples such as spleen, draining lymph node, ascites, tumor or other tissues were collected 24 hours after the last drug administration. A single cell suspension of the spleen and draining lymph nodes was obtained, and the red blood cells were lysed after centrifugation, and the cells were filtered, followed by flow cytometric staining and flow cytometry. The tumor tissue was cut and centrifuged, and the tissue was digested, the cells were filtered. Ficoll was used to separate individual nuclei. Individual nuclei were collected for corresponding antibody flow staining and flow cytometry Ascites samples were collected and centrifuged, and the cells were filtered and subjected to flow cytometry staining and flow cytometry.
# The spleen, draining lymph nodes and tumor tissues of MC38 tumor-bearing mice were collected 24 hours after the last administration. Ascites of ID8-Luc tumor mice, tumor tissues of PLC/PRF/5 tumor mice were subjected to tumor infiltrating lymphocyte analysis. The proportion of lymphocytes in the APG-1387 treatment group and control group was analyzed to explore the potential mechanism of anti-tumor effect of APG-1387 combined with anti-PD-1 antibody.
# spleen cells = test: Activation of spleen cells of healthy C57BL/6 mice in vivo; settings: 0.05, 0.2 and 0.8 mg/kg i.p. qd x 7 doses
# Experimental: Next, we intraperitoneally administered different dosages of APG-1387 to healthy C57BL/6 mice every day. Each group has 3 mice. After 7 days of continuous administration, the spleen was taken to obtain a single cell suspension. NK, macrophage, dendritic cells and T cells were analyzed by flow cytometry to obtain the proportion of these subsets, thus evaluate the effect of APG-1387 on each immune cell subpopulation.
# [6] = over the range of 20 to 45 mg, preliminary PK data
structure (smiles),measurement,setting,value
CN[C@@H](C)C(=O)N[C@H]1CN(S(=O)(=O)c2cccc(S(=O)(=O)N3CC[C@H]4CC[C@@H](C(=O)NC(c5ccccc5)c5ccccc5)N4C(=O)[C@@H](NC(=O)[C@H](C)NC)C3)c2)CC[C@H]2CC[C@@H](C(=O)NC(c3ccccc3)c3ccccc3)N2C1=O [APG-1387],T/C (%) value on day 18 after administration,CT26 colorectal cancer,105%
same,RTV on day 14 after administration,"MC38 colon cancer; APG-1387 0.2 mg/kg i.v., anti-PD-1 5 mg/kg i.p., twice weekly, 2 times",11.0 ± 1.2
same,T/C (%) value on day 14 after administration,MC38 colon cancer; day 14,70%
same,"DCR (disease control rate, SD above)",[1],6/24
same,"ORR (objective response rate, CR + PR)",[1],0
same,Best response: CR,[1]; patients,0
same,Best response: PD,[1]; patients,15
same,Best response: PR,[1]; patients,0
same,Best response: SD,[1]; patients,6
same,change of one mPC patient with confirmed SD,[2]; 45 mg,+6%
same,treatment duration of one mPC patient with confirmed SD,[2]; 45 mg,> 9 cycles
same,"DCR (disease control rate, SD above)",[2]; pancreatic cancer,4/10
same,"ORR (objective response rate, CR + PR)",[2]; pancreatic cancer,0
same,Best response: CR,"[2]; pancreatic cancer, patients",0
same,Best response: PD,"[2]; pancreatic cancer, patients",4
same,Best response: PR,"[2]; pancreatic cancer, patients",0
same,Best response: SD,"[2]; pancreatic cancer, patients",4
same,increase in AUC,[3]; [6],approximately dose proportional
same,increase in Cmax,[3]; [6],approximately dose proportional
same,accumulation,[3]; weekly dosing regimen,no significant accumulation
same,median survival time,[4],33.0 days
same,T/C value on the 22nd day after administration,"[4]; APG-1387 0.2 mg/kg i.v., anti-PD-1 100 μg/mouse i.p., q3d x 2 doses",69.6%
same,proportion of NK cells in the spleen and lymph nodes,[5],no significant effect
same,proportion of 9 types of immune cells in the spleen,spleen cells,no effect
